Experimental data taken from ChEMBL document CHEMBL5356986, “Research status of indole-modified natural products” (RSC Med Chem, 2023).

Columns and labels:
HeLa [1] = assay: Antiproliferative activity against human HeLa cells assessed as reduction in cell growth; assay type: functional, cell-based
MCF7 [2] = assay: Antiproliferative activity against human MCF7 cells assessed as reduction in cell viability incubated for 120 hrs by MTT assay; assay type: functional, cell-based; conditions: MCF7, 120 h
HCT-116 = assay: Cytotoxicity against human HCT-116 cells assessed as reduction in cell viability by MTS assay; assay type: functional, cell-based
MCF7 [3] = assay: Cytotoxicity against human MCF7 cells assessed as reduction in cell viability by MTS assay; assay type: functional, cell-based
K562 = assay: Antiproliferative activity against human K562 cells assessed as cell growth inhibition by MTT assay; assay type: functional, cell-based
Bel-7402 = assay: Cytotoxicity against human Bel-7402 cells assessed as reduction in cell viability measured after 72 hrs by MTT assay; assay type: functional, cell-based; conditions: Bel-7402, 72 h
H4 = assay: Antiproliferative activity against human H4 cells assessed as cell growth inhibition; assay type: functional, cell-based
[4] = Antioxidant activity assessed as DPPH radical scavenging activity measured after 30 mins; assay type: functional
SMMC-7721 = assay: Cytotoxicity against human SMMC-7721 cells assessed as reduction in cell viability incubated for 48 hrs by MTT assay; assay type: functional, cell-based; conditions: SMMC-7721, 48 h
MCF7 [5] = assay: Cytotoxicity against human MCF7 cells assessed as reduction in cell growth; assay type: functional, cell-based
[6] = Cytotoxicity against human A549 cells assessed as cell growth inhibition measured after 24 hrs by MTT assay; assay type: functional, cell-based
HL-60 = assay: Cytotoxicity against human HL-60 cells assessed as reduction in cell viability incubated for 48 hrs by MTT assay; assay type: functional, cell-based; conditions: HL-60, 48 h
SW480 = assay: Cytotoxicity against human SW480 cells assessed as cell growth inhibition; assay type: functional, cell-based
A549 [7] = assay: Antiproliferative activity against human A549 cells assessed as reduction in cell viability incubated for 48 hrs by MTT assay; assay type: functional, cell-based; conditions: A549, 48 h
[8] = test system: Human immunodeficiency virus 1; assay: Antiviral activity against HIV-1 harboring integrase L74M mutant; assay type: functional, organism-based
HT-29 = assay: Antiproliferative activity against human HT-29 cells assessed as inhibition of cell proliferation by MTT assay; assay type: functional, cell-based
MCF7 [9] = assay: Antiproliferative activity against human MCF7 cells assessed as inhibition of cell growth after overnight incubation by MTT assay; assay type: functional, cell-based
HeLa [10] = assay: Antiproliferative activity against human HeLa cells assessed as inhibition of cell growth incubated for 72 hrs by MTT assay; assay type: functional, cell-based
Escherichia coli = assay: Antibacterial activity against Escherichia coli assessed as reduction in bacterial cell viability; assay type: functional
Klebsiella pneumoniae = assay: Antibacterial activity against Klebsiella pneumoniae assessed as reduction in bacterial growth by broth microdilution method; assay type: functional
Bacillus subtilis = assay: Antibacterial activity against Bacillus subtilis assessed as reduction in microbial growth; assay type: functional
Staphylococcus aureus = assay: Antibacterial activity against Staphylococcus aureus assessed as reduction in microbial growth; assay type: functional
Aspergillus niger = assay: […] against Aspergillus niger assessed as […] incubated for 24 hrs by agar disc diffusion assay; assay type: functional
Candida albicans = assay: Antibacterial activity against Candida albicans assessed as reduction in bacterial growth; assay type: functional
Fusarium oxysporum = assay: Antifungal activity against Fusarium oxysporum assessed as inhibition of fungal growth; assay type: functional
MCF7 [11] = assay: Cytotoxicity against human MCF7 cells assessed as reduction in cell viability after 48 hrs by SRB assay; assay type: functional, cell-based; conditions: MCF7, 48 h
A549 [12] = assay: Antiproliferative activity against human A549 cells assessed as reduction in cell viability by MTT assay; assay type: functional, cell-based
HeLa [13] = assay: Cytotoxicity against human HeLa cells assessed as reduction in cell viability; assay type: functional, cell-based

COc1ccc2[nH]cc(C(=O)C(=O)N[C@H]3c4cc5c(cc4[C@@H](c4cc(OC)c(OC)c(OC)c4)[C@H]4C(=O)OC[C@@H]43)OCO5)c2c1
IC50 (HeLa [1]): 1960 nM
IC50 (MCF7 [2]): 1960 nM

C=C1CC[C@H]2[C@@](C)(Cc3c([nH]c4ccccc34)[C@@]2(C)COC(C)=O)[C@@H]1C/C=C1\C=COC1=O
IC50 (HCT-116): 1220 nM
IC50 (MCF7 [3]): 1850 nM

COc1cc([C@@H]2c3cc4c(cc3[C@H](OC(=O)c3ccc5cc[nH]c5c3)[C@H]3COC(=O)[C@H]23)OCO4)cc(OC)c1OC
IC50 (K562): 100 nM

CC1=C(O)C(=O)C=C2C1=CC=C1[C@@]2(C)CC[C@@]2(C)[C@@H]3C[C@](C)(C(=O)O)CC[C@]3(C)CC[C@]12C [CELASTROL]
IC50 (Bel-7402): 1550 nM
IC50 (H4): 2090 nM

O=C(/C=C/c1ccc(O)c(O)c1)NCCc1c[nH]c2ccc(O)cc12 [N-CAFFEOYLSEROTONIN]
EC50 [4]: 8100 nM

COc1ccc2c(/C=N/[C@H]3c4cc5c(cc4[C@@H](c4cc(OC)c(OC)c(OC)c4)[C@H]4C(=O)OC[C@@H]43)OCO5)cn(Cc3ccccc3F)c2c1
IC50 (HeLa [1]): 790 nM

COc1cc([C@@H]2c3cc4c(cc3[C@H](NC(=O)C(=O)c3c[nH]c5ccc(C(=O)NC(C)C)cc35)[C@H]3COC(=O)[C@H]23)OCO4)cc(OC)c1OC
IC50 (HeLa [1]): 3920 nM

COC(=O)C1=CO[C@@H](OC)[C@@H]2C(C(NCCc3c[nH]c4ccc(OC)cc34)NCCc3c[nH]c4ccc(OC)cc34)=CC[C@H]12
IC50 (SMMC-7721): 690 nM
IC50 (MCF7 [5]): 580 nM
IC50 [6]: 1180 nM
IC50 (HL-60): 430 nM
IC50 (SW480): 890 nM

COc1ccc(OC)c(-c2nc(C(=O)N[C@H]3c4cc5c(cc4[C@@H](c4cc(OC)c(OC)c(OC)c4)[C@H]4C(=O)OC[C@@H]43)OCO5)cc3c2[nH]c2ccccc23)c1
IC50 (A549 [7]): 1870 nM

C=C(C)[C@@H]1CC[C@]2(C(=O)O)CC[C@]3(C)[C@H](CC[C@@H]4[C@@]5(C)CC[C@H](OC(=O)CC(C)(C)C(=O)O)C(C)(C)[C@@H]5CC[C@]43C)[C@@H]12 [BEVIRIMAT]
IC50 [8]: 65 nM

CCOC(=O)c1[nH]c2ccc(OC)cc2c1/C=C/C(=O)c1cc(OC)c(OC)c(OC)c1
IC50 (HT-29): 390 nM
IC50 (MCF7 [9]): 460 nM
IC50 (HeLa [10]): 330 nM

COC(=O)c1[nH]c2ccc(OC)cc2c1/C=C/C(=O)c1cc(OC)c(OC)c(OC)c1
IC50 (HT-29): 1000 nM
IC50 (MCF7 [9]): 590 nM
IC50 (HeLa [10]): 2400 nM

COc1cc([C@@H]2c3cc4c(cc3[C@H](NCc3c[nH]c5ccccc35)[C@H]3COC(=O)[C@H]23)OCO4)cc(OC)c1OC
IC50 (HeLa [1]): 100 nM

GENTAMICIN
MIC (Escherichia coli): 26 µg/mL
MIC (Klebsiella pneumoniae): 26 µg/mL
MIC (Bacillus subtilis): 28 µg/mL
MIC (Staphylococcus aureus): 26 µg/mL
MIC (Aspergillus niger): 27 µg/mL
MIC (Candida albicans): 28 µg/mL
MIC (Fusarium oxysporum): 27 µg/mL

COc1ccc2[nH]c(C(=O)OC3O[C@@H]4O[C@@]5(C)CC[C@H]6[C@H](C)CC[C@@H]([C@H]3C)[C@@]46OO5)cc2c1 (stereo not given in full)
IC50 (MCF7 [11]): 14500 nM
IC50 (A549 [12]): 13400 nM

COc1cc([C@@H]2c3cc4c(cc3[C@H](OC(=O)c3c[nH]c5ccccc35)[C@H]3COC(=O)[C@H]23)OCO4)cc(OC)c1OC
IC50 (HeLa [1]): 2200 nM

COc1ccc(/C=C\c2cc(OC)c(OC)c(OC)c2)cc1OC(=O)c1cccc(-n2cc(CCOC(=O)[C@H](N)Cc3cn(C)c4ccccc34)nn2)c1
IC50 (HeLa [13]): 70 nM

COc1cc([C@@H]2c3cc4c(cc3[C@H](NC(=O)c3cc5c([nH]c6ccccc65)c(-c5ccc(F)c(F)c5)n3)[C@H]3COC(=O)[C@H]23)OCO4)cc(OC)c1OC
IC50 (A549 [7]): 2240 nM

CCOC(=O)c1[nH]c2cc(OC)ccc2c1/C=C/C(=O)c1cc(OC)c(OC)c(OC)c1
IC50 (HT-29): 130 nM
IC50 (MCF7 [9]): 240 nM
IC50 (HeLa [10]): 840 nM

O=C1O[C@H]([C@@H](O)CO)C(O)=C1O [ASCORBIC ACID]
EC50 [4]: 23000 nM
